Here are results for 31 molecules from US20110190137A1, “METHOD TO INHIBIT ETHYLENE RESPONSES IN PLANTS” (priority 2003, published 2011).

Test [1] concerns ethylene-induced epinasty in Patio variety tomato plants. The experiment in a line: Tomato epinasty test, volatile gas treatment. Format: in vivo. The settings on record: for Gas @ 10 ppm: visual rating of protection against ethylene-induced epinasty: gas 10 ppm v/v, 10 ppm ethylene, scale 0 to 10 (10 = complete protection); for Gas @ 1000 ppm: visual rating of protection against ethylene-induced epinasty: gas 1000 ppm v/v, 10 ppm ethylene after 4 h, scored 16 h later, scale 0 (no protection) to 10 (complete protection). On the procedure: (§1) Objective: The test procedure is designed to determine the ability of an experimental compound to block the epinastic growth response induced by ethylene in tomato plants when the experimental compound is administered either as a volatile gas or as a component of a spray solution.
(§2) Treatment chambers are of an appropriate size for the test plants and are airtight. Each is fitted with a reusable septum to be used for injection of ethylene. Test plants are Patio variety tomato seedlings planted two plants per three inch square plastic pot.
Volatile gas treatment entails placing two pots of Patio var. tomatoes into a polystyrene 4.8 L volume treatment chamber along with one-half (upper or lower section) of a 50×9 mm plastic Petri dish containing a Gelman filter pad. The appropriate amount of experimental compound, dissolved in 1.0 ml acetone, is pipetted onto the filter pad and the chamber immediately sealed. Four hours later ethylene gas equal to 10 ppm v/v final concentration is injected into the sealed chamber. Sixteen hours later the chambers are opened in an exhaust hood, allowed to air and the plants scored visually for the degree of protection against ethylene-induced epinasty conferred by the experimental compound when compared to ethylene treated and untreated controls on a scale of 0 to 10. A rating of 10 means complete protection. A rating of 0 means no protection from the effects of ethylene. Gas treatment concentrations are volume/volume.

The test system is the same in test [2]. The experiment in a line: Tomato epinasty test, spray application treatment. The class given is in vivo. The settings on record: for Spray @10 ppm: visual rating of protection against ethylene-induced epinasty: spray 10 ppm in 10% acetone/90% water, 0.05% Silwett L-77, 10 ppm ethylene, scale 0 to 10 (10 = complete protection). The protocol: as §1, §2
Spray application treatment entails using a DeVilbiss atomizer to completely cover all foliage and stems of two pots of Patio var. tomato plants with the appropriate amount of experimental compound dissolved in 10% acetone/90% water with 0.05% Silwett L-77 surfactant. Plants are air-dried in a drying hood for four hours then transferred to a 4.8 L polystyrene chamber which is sealed.
Ethylene gas equal to 10 ppm v/v final concentration is injected into the sealed chamber. Sixteen hours later the chambers are opened in an exhaust hood, allowed to air and the plants scored visually for the degree of protection against ethylene-induced epinasty conferred by the experimental compound when compared to ethylene treated and untreated controls on a scale of 0 to 10. A rating of 10 means complete protection. A rating of 0 means no protection from the effects of ethylene.

On to `CCOP(=S)(OCC)SCC1=C(CC)C1` [Compound 84, 1-(Diethoxy-thiophosphorylthiomethyl)-2-ethylcyclopropene], for which, in test [1], the “Gas @ 10 ppm: visual rating of protection against ethylene-induced epinasty” value (from here on “Gas @ 10 ppm: visual rating”) is reported as 0 and the “Gas @ 1000 ppm: visual rating of protection against ethylene-induced epinasty” value (“Gas @ 1000 ppm: visual rating” below) is on record as 10. Moreover, the “Spray @10 ppm: visual rating of protection against ethylene-induced epinasty” value (from here on “Spray @10 ppm: visual rating”) in test [2] stood at 0.

`CS(=O)(=O)OCCCCC1=CC1` [Compound 85, 1-(4-Methanesulfonyloxybutyl)-cyclopropene]: in test [1], the “Gas @ 10 ppm: visual rating” value stood at 0 and the “Gas @ 1000 ppm: visual rating” value was found to be 10. The “Spray @10 ppm: visual rating” value in test [2] is listed as 0.

On to `CCOC(=O)CCC1=C(Br)C1` [Compound 76], for which the “Gas @ 10 ppm: visual rating” value in test [1] worked out at 10. Also, the “Spray @10 ppm: visual rating” value in test [2] is reported as 0.

`CS(=O)(=O)Oc1ccc(C(=O)OCCCCCCCC2=CC2)cc1` [Compound 53, 1-(7-(4-Methanesulfonyloxyphenyl)-carbonyloxyheptyl)-cyclopropene]: in test [1], the “Gas @ 10 ppm: visual rating” value is given as 0 and the “Gas @ 1000 ppm: visual rating” value was 10. Moreover, the “Spray @10 ppm: visual rating” value in test [2] is reported as 0.

For the molecule `C1=C(CCCCCCCn2cccn2)C1` [Compound 32], in test [1], the “Gas @ 10 ppm: visual rating” value came to 3 and the “Gas @ 1000 ppm: visual rating” value is given as 10. Also, in test [2], the “Spray @10 ppm: visual rating” value is 10.

Turning to `Clc1ccc(CC2=CC2)cc1` [Compound 1, 1-Chloro-4-cycloprop-1-enylmethyl-benzene], the “Gas @ 10 ppm: visual rating” value in test [1] was 10. For the same molecule, the “Spray @10 ppm: visual rating” value in test [2] is reported as 10.

On to `CCCCCCCCC1=C(B2OCO2)C1` [Compound 38, 2-Octyl-1-(2-(2-boro-1,3dioxetane))-cyclopropene], for which the “Gas @ 10 ppm: visual rating” value in test [1] was determined as 3. The “Gas, tested at 850 ppm: rating of protection against epinasty” value in test [1] (gas 850 ppm (footnote b or in cell), scale 0 to 10) was 10(@850. The “Spray @10 ppm: visual rating” value in test [2] was determined as 0.

As to `CCC1=C(COS(C)(=O)=O)C1` [Compound 83, 1-(Methanesulfonyloxymethyl)-2-ethylcyclopropene], in test [1], the “Gas @ 10 ppm: visual rating” value is given as 4 and the “Gas @ 1000 ppm: visual rating” value was 10. In addition, the “Spray @10 ppm: visual rating” value in test [2] is recorded as 2.

`COc1ccc(OCC2(C)C=C2)cc1` [Compound 16]: the “Gas @ 10 ppm: visual rating” value in test [1] was found to be 3.75. For the same molecule, the “Gas @ 500 ppm: rating of protection against epinasty” value in test [1] (gas 500 ppm, scale 0 to 10) is given as 10^c^. Moreover, in test [2], the “Spray @10 ppm: visual rating” value turned out to be 4.5.

Take `CC1=C(Cc2ccccc2)C1` [Compound 8, 1-methyl-2-benzylcyclopropene]: in test [1], the “Gas @ 10 ppm: visual rating” value was found to be 0 and the “Gas @ 1000 ppm: visual rating” value turned out to be 10. The “Spray @10 ppm: visual rating” value in test [2] was 0.

As to `Clc1ccc(CCC2=CC2)cc1` [Compound 28], the “Gas @ 10 ppm: visual rating” value in test [1] is 9.5. In addition, the “Spray @10 ppm: visual rating” value in test [2] was 8.

Regarding `C1=C(CC2CCCC2)C1` [Compound 31], in test [1], the “Gas @ 10 ppm: visual rating” value is 9. Further, the “Spray @10 ppm: visual rating” value in test [2] is on record as 7.5.

Turning to `CC(C)(C)[Si](C)(C)OCCCCCCCC1=CC1` [Compound 82, 1-(7-T-butyldimethylsilyloxyheptyl)-cyclopropene], in test [1], the “Gas @ 10 ppm: visual rating” value came out at 3 and the “Gas @ 1000 ppm: visual rating” value came out at 10. Besides, the “Spray @10 ppm: visual rating” value in test [2] came out at 0.

Consider `C1=C(Cc2cccs2)C1` [Compound 2, 1-(2-Thienyl)methyl-cyclopropene], for which the “Gas @ 10 ppm: visual rating” value in test [1] is 10. In addition, in test [2], the “Spray @10 ppm: visual rating” value was determined as 7.

For `CC1(CCc2ccccc2)C=C1` [Compound 19], in test [1], the “Gas @ 10 ppm: visual rating” value was 2 and the “Gas @ 1000 ppm: visual rating” value is reported as 7.5. In test [2], the “Spray @10 ppm: visual rating” value is listed as 2.

As for `C1=C(CC2CCCCCC2)C1` [Compound 22], the “Gas @ 10 ppm: visual rating” value in test [1] stood at 9. Moreover, in test [2], the “Spray @10 ppm: visual rating” value stood at 10.

For the molecule `O=S(=O)(OCCC1=CC1)c1ccccc1` [Compound 10, 2-(2-Benzenesulfonyloxyethyl)-cyclopropene], the “Gas @ 10 ppm: visual rating” value in test [1] amounted to 10. Also, in test [2], the “Spray @10 ppm: visual rating” value was determined as 10.

In the case of `CS(=O)(=O)OCCCCCCCC1=CC1` [Compound 69, 1-(7-Methanesulfonyloxyheptyl)-cyclopropene], in test [1], the “Gas @ 10 ppm: visual rating” value worked out at 0 and the “Gas @ 1000 ppm: visual rating” value worked out at 8. The “Spray @10 ppm: visual rating” value in test [2] turned out to be 0.

On to `C1=C(CCSc2ccncc2)C1` [Compound 43], for which the “Gas @ 10 ppm: visual rating” value in test [1] is listed as 10. Further, in test [2], the “Spray @10 ppm: visual rating” value is listed as 0.

In the case of `CC[Si](CC)(CC)C1=C(C)C1` [Compound 81, 1-Triethylsilyl-2-methylcyclopropene], in test [1], the “Gas @ 10 ppm: visual rating” value was determined as 0 and the “Gas @ 1000 ppm: visual rating” value was found to be 10. Besides, the “Spray @10 ppm: visual rating” value in test [2] came to 0.

Take `Cc1cccc(CC2=CC2)c1` [Compound 29]: the “Gas @ 10 ppm: visual rating” value in test [1] came to 10. Moreover, the “Spray @10 ppm: visual rating” value in test [2] amounted to 10.

For the molecule `CC1(Cc2ccccc2)C=C1` [Compound 20], in test [1], the “Gas @ 10 ppm: visual rating” value turned out to be 0 and the “Gas @ 1000 ppm: visual rating” value is 7. Also, in test [2], the “Spray @10 ppm: visual rating” value was found to be 0.

Turning to `O=C(OCC1=CC1)c1ccco1` [Compound 47], the “Gas @ 10 ppm: visual rating” value in test [1] came to 0. Besides, in test [1] (gas 551 ppm (in cell), scale 0 to 10), the “Gas @ 551 ppm: rating of protection against epinasty” value is on record as 10(@551. In test [2], the “Spray @10 ppm: visual rating” value is 0.

`C1=C(CCc2ccccc2)C1` [Compound 18]: the “Gas @ 10 ppm: visual rating” value in test [1] turned out to be 10. Moreover, the “Spray @10 ppm: visual rating” value in test [2] is on record as 6.

Consider `O=C(O)CCC1=C(Br)C1` [Compound 77], for which the “Gas @ 10 ppm: visual rating” value in test [1] was 8. In addition, the “Spray @10 ppm: visual rating” value in test [2] was found to be 2.

Regarding `C[Si](C)(C)CC1=CC1` [Compound 64, 1-Trimethylsilylmethylcyclopropene], the “Gas @ 10 ppm: visual rating” value in test [1] was determined as 10. In test [2], the “Spray @10 ppm: visual rating” value was determined as 9.

Regarding “1-((2-Carboxy-N-morpholino)ethyl)-cyclopropene [Compound 15]”, in test [1], the “Gas @ 10 ppm: visual rating” value amounted to 10. Also, the “Spray @10 ppm: visual rating” value in test [2] is listed as 0.

For `CCC1=C(n2nc(-c3ccc(Cl)cc3)ccc2=O)C1` [Compound 60, 1-Ethyl-2-(3-(4-chlorophenol)-pyridaz-6-on-1-yl)-cyclopropene], in test [1], the “Gas @ 10 ppm: visual rating” value is listed as 4 and the “Gas @ 1000 ppm: visual rating” value was determined as 0. Besides, the “Spray @10 ppm: visual rating” value in test [2] is listed as 0.

As for `O=C(OCCCC1=CC1)c1cnccn1` [Compound 61], the “Gas @ 10 ppm: visual rating” value in test [1] stood at 0. Besides, the “Gas @ 438 ppm: rating of protection against epinasty” value in test [1] (gas 438 ppm (in cell), scale 0 to 10) is 10(@438. Further, the “Spray @10 ppm: visual rating” value in test [2] is 0.

In the case of `Cc1nnsc1C(=O)OCCC1=CC1` [Compound 51], in test [1], the “Gas @ 10 ppm: visual rating” value amounted to 0 and the “Gas @ 1000 ppm: visual rating” value stood at 3. In addition, in test [2], the “Spray @10 ppm: visual rating” value worked out at 0. The “Spray @ 1000 ppm: rating of protection against epinasty” value in test [2] (spray 1000 ppm (in cell), scale 0 to 10) is recorded as 8.

For the molecule `CS(=O)(=O)OCCC1=CC1` [Compound 68, 1-(2-Methanesulfonyloxyethyl)-cyclopropene], in test [1], the “Gas @ 10 ppm: visual rating” value came to 3 and the “Gas @ 1000 ppm: visual rating” value turned out to be 10. For the same molecule, the “Spray @10 ppm: visual rating” value in test [2] was determined as 5.
